Experimental data: PMC6704710, “Preclinical evaluation of 3D185, a novel potent inhibitor of FGFR1/2/3 and CSF-1R, in FGFR-dependent and macrophage-dominant cancer models” (Journal of Experimental & Clinical Cancer Research : CR, 2019)

Experiments:
HIPK1(h) = biological target: T1, HIPK1(h) (Homo sapiens, UniProt Q86Z02); assay: Eurofins kinase panel; type: biochemical; settings: read-out: Inhibition rate (%)
T1 construct: purchased Eurofins (KinaseProfiler)

PRAK(h) = biological target: T2, PRAK(h) (Homo sapiens, UniProt Q8IW41); assay: Eurofins kinase panel; type: biochemical; settings: read-out: Inhibition rate (%)
T2 construct: purchased Eurofins (KinaseProfiler)
T2 sequence (Q8IW41 1-473): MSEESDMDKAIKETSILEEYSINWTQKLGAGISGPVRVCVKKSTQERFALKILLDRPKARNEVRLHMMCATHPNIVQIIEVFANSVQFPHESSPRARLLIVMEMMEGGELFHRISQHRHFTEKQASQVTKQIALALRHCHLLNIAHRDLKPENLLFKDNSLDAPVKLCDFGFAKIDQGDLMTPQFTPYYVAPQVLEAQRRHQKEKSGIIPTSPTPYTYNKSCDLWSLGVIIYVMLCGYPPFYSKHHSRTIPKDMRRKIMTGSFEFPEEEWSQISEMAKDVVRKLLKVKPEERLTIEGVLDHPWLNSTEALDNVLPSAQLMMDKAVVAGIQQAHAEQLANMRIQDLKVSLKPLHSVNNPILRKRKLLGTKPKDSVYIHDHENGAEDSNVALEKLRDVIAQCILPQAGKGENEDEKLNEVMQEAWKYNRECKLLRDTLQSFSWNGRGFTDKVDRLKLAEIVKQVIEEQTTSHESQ

PKBα(h) = biological target: T3, PKBα(h) (Homo sapiens, UniProt P31749); assay: Eurofins kinase panel; type: biochemical; settings: read-out: Inhibition rate (%)
T3 construct: purchased Eurofins (KinaseProfiler)

[1] = tested on: bFGF-induced primary HUVECs; assay: bFGF-induced HUVEC proliferation (CCK-8); type: cell-based, human
MST3(h) = biological target: T4, MST3(h) (Homo sapiens, UniProt Q9Y6E0); assay: Eurofins kinase panel; type: biochemical; settings: read-out: Inhibition rate (%)
T4 construct: purchased Eurofins (KinaseProfiler)

CDK7/cyclinH/MAT1(h) = biological target: T5, CDK7/cyclinH/MAT1(h) (Homo sapiens, UniProt P50613); assay: Eurofins kinase panel; type: biochemical; settings: read-out: Inhibition rate (%)
T5 construct: purchased Eurofins (KinaseProfiler)

ACK1(h) = biological target: T6, ACK1(h) (Homo sapiens, UniProt Q07912); assay: Eurofins kinase panel; type: biochemical; settings: read-out: Inhibition rate (%)
T6 construct: purchased Eurofins (KinaseProfiler)

SIK2(h) = biological target: T7, SIK2(h) (Homo sapiens, UniProt Q9H0K1); assay: Eurofins kinase panel; type: biochemical; settings: read-out: Inhibition rate (%)
T7 construct: purchased Eurofins (KinaseProfiler)

[2] = tested on: NCI-H1581 subcutaneous xenograft; type: in vivo; settings: 50 mg/kg oral once daily 14 days
Procedure: […]. When the tumor volume reached 100–150 mm^3, the mice were randomly assigned to the vehicle control group (n = 12) or a treatment group (n = 6 per group). […].
The tumors were measured twice per week using a microcaliper. Tumor volume (TV) was calculated as follows: TV = (length × width^2)/2. In addition, the individual relative tumor volume (RTV) was calculated as follows: RTV = Vt / V0, where Vt is the volume on a particular day and V0 is the volume at the beginning of the treatment. The RTV is shown on the indicated days as the […] ± SEM for the indicated groups of mice. […]

HIPK4(h) = biological target: T8, HIPK4(h) (Homo sapiens, UniProt Q8NE63); assay: Eurofins kinase panel; type: biochemical; settings: read-out: Inhibition rate (%)
T8 construct: purchased Eurofins (KinaseProfiler)
T8 sequence (Q8NE63 1-616): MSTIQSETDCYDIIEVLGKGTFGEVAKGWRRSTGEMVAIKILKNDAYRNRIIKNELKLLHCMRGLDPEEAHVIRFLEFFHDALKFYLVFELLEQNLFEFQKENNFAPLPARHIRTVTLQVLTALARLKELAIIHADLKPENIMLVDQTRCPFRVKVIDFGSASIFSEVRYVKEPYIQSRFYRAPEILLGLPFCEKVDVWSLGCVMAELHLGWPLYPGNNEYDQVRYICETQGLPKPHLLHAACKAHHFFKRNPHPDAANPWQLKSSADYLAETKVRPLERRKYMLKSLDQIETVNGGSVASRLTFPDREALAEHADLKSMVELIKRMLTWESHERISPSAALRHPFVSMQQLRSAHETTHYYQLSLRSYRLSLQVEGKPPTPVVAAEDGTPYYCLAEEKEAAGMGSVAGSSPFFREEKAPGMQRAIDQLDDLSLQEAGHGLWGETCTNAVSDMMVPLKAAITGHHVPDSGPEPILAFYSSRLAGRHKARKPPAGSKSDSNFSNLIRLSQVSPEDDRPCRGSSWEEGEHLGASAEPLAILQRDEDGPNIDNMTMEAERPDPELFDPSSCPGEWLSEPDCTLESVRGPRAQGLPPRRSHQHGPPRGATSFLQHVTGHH

DAPK1(h) = biological target: T9, DAPK1(h) (Homo sapiens, UniProt P53355); assay: Eurofins kinase panel; type: biochemical; settings: read-out: Inhibition rate (%)
T9 construct: purchased Eurofins (KinaseProfiler)

[3] = tested on: 20 additional tumor cell lines with low expression or activation of FGFR and CSF-1R; assay: Cell proliferation assay, non-dependent panel; type: cell-based; settings: 20 cell lines
Procedure: The cancer cell lines indicated in Figure 3 were seeded in 96-well plates at a low density in growth medium. The next day, appropriate controls or the designated concentrations of the compounds were added to each well, and the cells were incubated for 72 h. HUVECs (passage 3) were seeded in 96-well plates in growth medium overnight and transferred to serum-free medium for 24 h. The following day, appropriate controls or the designated concentrations of the compounds were added to each well, and 100 ng/mL growth factor (bFGF or VEGF) was added to the indicated wells. The cells were incubated for 48 h. Finally, cell proliferation was determined using a sulforhodamine B (SRB) assay or a cell counting kit-8 (CCK-8) assay. […] IC50 values for proliferation curves were calculated using a 4-parameter logistic nonlinear regression model with SoftMax Pro Software (Molecular Devices, San Jose, USA).

T3 sequence (P31749 whole entry): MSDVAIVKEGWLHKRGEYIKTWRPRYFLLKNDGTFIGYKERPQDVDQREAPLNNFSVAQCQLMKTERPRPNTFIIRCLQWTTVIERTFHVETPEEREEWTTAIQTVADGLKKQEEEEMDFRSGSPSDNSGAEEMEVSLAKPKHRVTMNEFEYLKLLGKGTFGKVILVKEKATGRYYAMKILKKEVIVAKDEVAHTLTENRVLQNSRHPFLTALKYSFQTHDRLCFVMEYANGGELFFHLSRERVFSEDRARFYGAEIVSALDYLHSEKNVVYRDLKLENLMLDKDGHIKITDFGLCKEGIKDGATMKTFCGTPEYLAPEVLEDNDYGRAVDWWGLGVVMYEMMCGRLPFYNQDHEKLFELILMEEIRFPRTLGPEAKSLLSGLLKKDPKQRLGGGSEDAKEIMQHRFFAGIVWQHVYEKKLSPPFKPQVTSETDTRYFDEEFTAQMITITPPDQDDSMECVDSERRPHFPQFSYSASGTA
T1 sequence (Q86Z02 whole entry): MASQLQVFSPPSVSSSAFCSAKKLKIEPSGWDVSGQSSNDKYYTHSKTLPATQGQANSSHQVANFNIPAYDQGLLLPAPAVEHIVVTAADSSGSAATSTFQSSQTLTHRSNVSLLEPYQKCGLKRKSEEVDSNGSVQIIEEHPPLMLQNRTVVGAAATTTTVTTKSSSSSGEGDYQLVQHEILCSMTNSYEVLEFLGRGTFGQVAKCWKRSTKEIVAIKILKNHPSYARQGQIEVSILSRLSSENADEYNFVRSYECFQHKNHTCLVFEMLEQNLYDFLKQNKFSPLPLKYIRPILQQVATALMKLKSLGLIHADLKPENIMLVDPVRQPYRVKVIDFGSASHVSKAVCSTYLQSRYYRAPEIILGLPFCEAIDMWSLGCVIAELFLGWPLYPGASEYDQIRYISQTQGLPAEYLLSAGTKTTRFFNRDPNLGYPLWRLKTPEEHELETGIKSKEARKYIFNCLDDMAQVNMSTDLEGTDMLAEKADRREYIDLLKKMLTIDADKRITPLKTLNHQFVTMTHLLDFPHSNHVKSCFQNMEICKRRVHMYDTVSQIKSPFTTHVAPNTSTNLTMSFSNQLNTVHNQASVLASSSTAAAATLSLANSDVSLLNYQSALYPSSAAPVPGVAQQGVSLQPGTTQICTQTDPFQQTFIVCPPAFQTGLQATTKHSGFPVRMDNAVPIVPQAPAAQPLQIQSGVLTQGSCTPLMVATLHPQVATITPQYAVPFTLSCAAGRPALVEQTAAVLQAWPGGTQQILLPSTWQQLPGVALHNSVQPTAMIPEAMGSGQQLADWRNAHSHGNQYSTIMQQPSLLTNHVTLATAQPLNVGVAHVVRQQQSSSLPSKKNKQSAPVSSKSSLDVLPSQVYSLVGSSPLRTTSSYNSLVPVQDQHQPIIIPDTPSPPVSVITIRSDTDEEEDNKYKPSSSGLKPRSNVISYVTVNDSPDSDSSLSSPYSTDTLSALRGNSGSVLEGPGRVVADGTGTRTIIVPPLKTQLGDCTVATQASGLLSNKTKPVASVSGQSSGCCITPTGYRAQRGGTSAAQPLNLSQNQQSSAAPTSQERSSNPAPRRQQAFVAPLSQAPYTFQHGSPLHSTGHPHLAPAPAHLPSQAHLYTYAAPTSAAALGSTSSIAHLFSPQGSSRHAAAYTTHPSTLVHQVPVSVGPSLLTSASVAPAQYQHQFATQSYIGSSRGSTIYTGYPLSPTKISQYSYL
T4 sequence (Q9Y6E0 whole entry): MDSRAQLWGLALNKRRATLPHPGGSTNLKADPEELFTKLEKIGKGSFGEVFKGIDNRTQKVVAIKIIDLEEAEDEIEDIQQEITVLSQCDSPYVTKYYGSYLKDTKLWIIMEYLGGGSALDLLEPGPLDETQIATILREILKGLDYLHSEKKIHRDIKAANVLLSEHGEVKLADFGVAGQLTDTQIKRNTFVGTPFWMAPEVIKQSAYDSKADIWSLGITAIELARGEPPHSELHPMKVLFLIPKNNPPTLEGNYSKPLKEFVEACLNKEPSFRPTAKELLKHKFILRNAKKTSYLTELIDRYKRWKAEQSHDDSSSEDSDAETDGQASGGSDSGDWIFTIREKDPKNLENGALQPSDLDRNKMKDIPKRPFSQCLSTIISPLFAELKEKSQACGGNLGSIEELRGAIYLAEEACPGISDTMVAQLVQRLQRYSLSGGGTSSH
T6 sequence (Q07912 whole entry): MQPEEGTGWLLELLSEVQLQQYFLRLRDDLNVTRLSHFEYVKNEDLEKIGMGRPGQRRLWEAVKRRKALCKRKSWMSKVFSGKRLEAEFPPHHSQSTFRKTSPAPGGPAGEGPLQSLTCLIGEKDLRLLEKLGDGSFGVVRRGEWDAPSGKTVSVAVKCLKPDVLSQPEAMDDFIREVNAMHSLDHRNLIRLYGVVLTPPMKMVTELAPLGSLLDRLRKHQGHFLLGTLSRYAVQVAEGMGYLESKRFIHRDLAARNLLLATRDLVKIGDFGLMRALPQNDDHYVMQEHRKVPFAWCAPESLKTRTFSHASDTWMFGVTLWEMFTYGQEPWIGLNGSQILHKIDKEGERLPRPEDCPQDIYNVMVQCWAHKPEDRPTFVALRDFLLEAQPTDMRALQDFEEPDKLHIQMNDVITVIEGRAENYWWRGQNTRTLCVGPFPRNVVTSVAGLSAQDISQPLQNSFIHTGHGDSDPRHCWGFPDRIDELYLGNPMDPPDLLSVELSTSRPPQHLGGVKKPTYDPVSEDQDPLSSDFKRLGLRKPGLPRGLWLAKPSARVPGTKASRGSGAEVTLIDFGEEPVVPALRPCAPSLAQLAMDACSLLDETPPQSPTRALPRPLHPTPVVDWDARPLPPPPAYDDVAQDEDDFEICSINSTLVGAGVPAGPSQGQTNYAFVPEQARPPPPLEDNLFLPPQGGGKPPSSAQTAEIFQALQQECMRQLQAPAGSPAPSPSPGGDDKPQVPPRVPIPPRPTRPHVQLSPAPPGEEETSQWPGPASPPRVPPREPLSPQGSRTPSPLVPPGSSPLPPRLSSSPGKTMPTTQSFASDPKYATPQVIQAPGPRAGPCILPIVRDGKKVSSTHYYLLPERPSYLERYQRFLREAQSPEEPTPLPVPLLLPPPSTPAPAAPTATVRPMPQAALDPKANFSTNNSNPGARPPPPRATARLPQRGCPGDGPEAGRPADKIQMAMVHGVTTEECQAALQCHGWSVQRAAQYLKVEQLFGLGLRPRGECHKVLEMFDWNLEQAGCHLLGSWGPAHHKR
T7 sequence (Q9H0K1 whole entry): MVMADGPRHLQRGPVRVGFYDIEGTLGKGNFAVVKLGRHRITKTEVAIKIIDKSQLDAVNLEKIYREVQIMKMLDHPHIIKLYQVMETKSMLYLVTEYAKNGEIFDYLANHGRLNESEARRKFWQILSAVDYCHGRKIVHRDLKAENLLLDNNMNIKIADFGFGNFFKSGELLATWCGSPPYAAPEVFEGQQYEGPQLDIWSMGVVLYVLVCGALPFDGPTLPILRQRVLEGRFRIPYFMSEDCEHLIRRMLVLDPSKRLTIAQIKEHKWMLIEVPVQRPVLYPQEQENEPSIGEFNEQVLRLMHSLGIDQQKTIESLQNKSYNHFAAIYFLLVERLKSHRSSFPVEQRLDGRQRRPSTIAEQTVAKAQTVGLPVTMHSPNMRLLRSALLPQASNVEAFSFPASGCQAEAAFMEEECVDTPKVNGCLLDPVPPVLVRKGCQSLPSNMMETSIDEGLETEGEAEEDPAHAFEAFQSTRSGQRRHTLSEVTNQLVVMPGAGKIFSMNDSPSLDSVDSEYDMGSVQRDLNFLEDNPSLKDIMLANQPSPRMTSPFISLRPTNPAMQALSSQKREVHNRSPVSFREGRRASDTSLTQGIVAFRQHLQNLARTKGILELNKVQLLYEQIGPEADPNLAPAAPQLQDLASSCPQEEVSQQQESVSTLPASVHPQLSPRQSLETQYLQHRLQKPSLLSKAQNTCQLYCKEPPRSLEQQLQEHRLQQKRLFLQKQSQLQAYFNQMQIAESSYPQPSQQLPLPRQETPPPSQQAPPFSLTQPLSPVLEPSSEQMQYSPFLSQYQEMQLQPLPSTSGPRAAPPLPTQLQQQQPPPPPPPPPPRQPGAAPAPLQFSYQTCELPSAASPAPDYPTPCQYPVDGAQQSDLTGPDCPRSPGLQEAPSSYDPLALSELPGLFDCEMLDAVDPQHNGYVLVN

## COc1cc(OC)c(Cl)c(-c2ccc3c(NC(=O)c4ccc(N5CCNC(C)(C)C5)cc4)n[nH]c3n2)c1Cl [3D185]
HIPK1(h); 10 nM
  inhibition at 0.01 µM: -3%
HIPK1(h); 100 nM
  inhibition at 0.1 µM: 4%
HIPK1(h); 1000 nM
  inhibition at 1 µM: 10%
PRAK(h); 10 nM
  inhibition at 0.01 µM: -18%
PRAK(h); 100 nM
  inhibition at 0.1 µM: -24%
PRAK(h); 1000 nM
  inhibition at 1 µM: -10%
PKBα(h); 10 nM
  inhibition at 0.01 µM: -6%
PKBα(h); 100 nM
  inhibition at 0.1 µM: -8%
PKBα(h); 1000 nM
  inhibition at 1 µM: -7%
[1]; Homo sapiens, HUVEC, bFGF 100 ng/mL, 48 h
  IC50: 0.5 nM
[1]; cellular assays
  fold more potent on bFGF-induced than VEGF-induced HUVEC proliferation: greater than 176 fold
MST3(h); 10 nM
  inhibition at 0.01 µM: -2%
MST3(h); 100 nM
  inhibition at 0.1 µM: 8%
MST3(h); 1000 nM
  inhibition at 1 µM: 70%
CDK7/cyclinH/MAT1(h); 10 nM
  inhibition at 0.01 µM: 12%
CDK7/cyclinH/MAT1(h); 100 nM
  inhibition at 0.1 µM: 11%
CDK7/cyclinH/MAT1(h); 1000 nM
  inhibition at 1 µM: 11%
ACK1(h); 10 nM
  inhibition at 0.01 µM: 1%
ACK1(h); 100 nM
  inhibition at 0.1 µM: 37%
ACK1(h); 1000 nM
  inhibition at 1 µM: 90%
SIK2(h); 10 nM
  inhibition at 0.01 µM: 7%
SIK2(h); 100 nM
  inhibition at 0.1 µM: 5%
SIK2(h); 1000 nM
  inhibition at 1 µM: 4%
[2]
  tumor growth inhibition rate: 96.4%
HIPK4(h); 10 nM
  inhibition at 0.01 µM: 1%
HIPK4(h); 100 nM
  inhibition at 0.1 µM: -17%
HIPK4(h); 1000 nM
  inhibition at 1 µM: 16%
DAPK1(h); 10 nM
  inhibition at 0.01 µM: 5%
DAPK1(h); 100 nM
  inhibition at 0.1 µM: 13%
DAPK1(h); 1000 nM
  inhibition at 1 µM: 19%
[3]
  IC50: > 1000 nM
